Test results published in the supplement of paper PMC10307832.

What was measured:
Experiment in all cases: relative viability (nuclei count vs DMSO), 5 days (fraction); higher = more cells survive
RU-SKI 43 + Trametinib = compound: CC[C@@H](C)CNCC(=O)N1CCC2=C([C@@H]1COC3=CC=CC(=C3)C)C=CS2 [RU-SKI 43] + CC(=O)Nc1cccc(-n2c(=O)n(C3CC3)c(=O)c3c(Nc4ccc(I)cc4F)n(C)c(=O)c(C)c32)c1 [Trametinib] (partner 0.02 µM)
Outline: (§1)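 Lung cancer cell lines in 1536-well plates were dosed by pin tool the day after seeding, either with one drug alone or with a fixed anchor-drug dose plus five library-drug doses (not always all listed) in √10 steps. After 5 days, cells were fixed and their nuclei stained in one step (final 0.05% Triton X-100, 1% formaldehyde, 1 ug/ml Hoechst), then counted on 4× images. Relative viability is the nuclei count in treated wells divided by that in vehicle wells. Values are medians of duplicate plates.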

RU-SKI 43 + OSI-027 = compound: CC[C@@H](C)CNCC(=O)N1CCC2=C([C@@H]1COC3=CC=CC(=C3)C)C=CS2 [RU-SKI 43] + COc1cccc2cc(-c3nc([C@H]4CC[C@H](C(=O)O)CC4)n4ncnc(N)c34)[nH]c12 [OSI-027] (partner 0.5 µM)
Outline: as §1

MK-8033 + Linsitinib = compound: Cn1cc(-c2cnc3ccc4ccc(CS(=O)(=O)NCc5ccccn5)cc4c(=O)c3c2)cn1 [MK-8033] + C[C@]1(O)C[C@@H](c2nc(-c3ccc4ccc(-c5ccccc5)nc4c3)c3c(N)nccn32)C1 [Linsitinib] (partner 1 µM)
Outline: as §1

MK-8033 + Tozasertib = compound: Cn1cc(-c2cnc3ccc4ccc(CS(=O)(=O)NCc5ccccn5)cc4c(=O)c3c2)cn1 [MK-8033] + Cc1cc(Nc2cc(N3CCN(C)CC3)nc(Sc3ccc(NC(=O)C4CC4)cc3)n2)n[nH]1 [Tozasertib] (partner 0.1 µM)
Outline: as §1

Cell Line	relative viability (RU-SKI 43 + Trametinib; first compound 0.1 µM)	relative viability (RU-SKI 43 + Trametinib; first compound 0.3162 µM)	relative viability (RU-SKI 43 + Trametinib; first compound 1 µM)	relative viability (RU-SKI 43 + Trametinib; first compound 3.162 µM)	relative viability (RU-SKI 43 + Trametinib; first compound 10 µM)	relative viability (RU-SKI 43 + OSI-027; first compound 0.1 µM)	relative viability (RU-SKI 43 + OSI-027; first compound 0.3162 µM)	relative viability (RU-SKI 43 + OSI-027; first compound 1 µM)	relative viability (RU-SKI 43 + OSI-027; first compound 3.162 µM)	relative viability (RU-SKI 43 + OSI-027; first compound 10 µM)	relative viability (MK-8033 + Linsitinib; first compound 0.02 µM)	relative viability (MK-8033 + Linsitinib; first compound 0.06325 µM)	relative viability (MK-8033 + Linsitinib; first compound 0.2 µM)	relative viability (MK-8033 + Linsitinib; first compound 0.6325 µM)	relative viability (MK-8033 + Linsitinib; first compound 2 µM)	relative viability (MK-8033 + Tozasertib; first compound 0.02 µM)	relative viability (MK-8033 + Tozasertib; first compound 0.06325 µM)	relative viability (MK-8033 + Tozasertib; first compound 0.2 µM)	relative viability (MK-8033 + Tozasertib; first compound 0.6325 µM)	relative viability (MK-8033 + Tozasertib; first compound 2 µM)
201T	0.709	0.717	0.776	0.789	0.749	0.834	0.709	1.06	0.69	0.458	1.13	0.916	0.979	1	1.02	0.864	0.899	0.82	0.909	0.86
A549	–	–	–	–	–	–	–	–	–	–	0.627	0.571	0.52	0.515	0.581	–	–	–	–	–
A-427	0.718	0.694	0.788	0.744	0.706	0.471	0.345	0.546	0.507	0.43	1.09	1.21	1.02	1.17	1.1	0.225	0.213	0.209	0.17	0.194
ABC-1	–	–	–	–	–	0.541	0.385	0.554	0.52	0.473	0.744	0.791	0.676	0.829	0.657	0.207	0.123	0.155	0.174	0.154
BEN	0.967	1.12	1.06	1.11	1.01	0.31	0.292	0.306	0.302	0.33	0.906	0.859	0.765	0.844	0.853	0.544	0.491	0.461	0.492	0.545
CAL-12T	0.306	0.242	0.316	0.259	0.351	0.612	0.447	0.721	0.911	0.543	0.738	0.861	0.72	0.903	0.771	0.317	0.29	0.28	0.311	0.266
COR-L23	0.611	0.598	0.672	0.577	0.423	0.718	0.99	0.865	0.881	0.614	0.88	0.849	0.824	0.993	0.902	0.198	0.187	0.164	0.164	0.117
COR-L 105	0.404	0.334	0.41	0.414	0.397	0.672	0.817	0.708	0.677	0.665	0.868	1.04	0.838	0.902	0.915	0.311	0.377	0.338	0.349	0.345
Calu-6	–	–	–	–	–	–	–	–	–	–	0.895	0.96	0.874	1.01	0.876	–	–	–	–	–
ChaGo-K-1	0.921	1.01	0.899	0.941	0.906	0.658	0.632	0.646	0.579	0.744	–	–	–	–	–	0.216	0.227	0.224	0.218	0.206
EBC-1	–	–	–	–	–	–	–	–	–	–	0.938	0.68	0.895	1.05	0.167	–	–	–	–	–
EKVX	0.275	0.312	0.268	0.349	0.315	0.412	0.67	0.725	0.813	0.466	1	1.01	0.856	1.05	0.994	0.482	0.262	0.466	0.288	0.313
EMC-BAC-2	0.857	0.9	0.939	0.861	0.749	0.336	0.32	0.365	0.378	0.361	0.774	0.771	0.744	0.893	0.791	0.295	0.254	0.281	0.265	0.298
EPLC-272H	0.294	0.294	0.552	0.296	0.278	0.32	0.222	0.278	0.326	0.282	1.17	–	1.01	1.07	1.17	0.27	0.214	0.279	0.32	0.152
H3255	0.664	0.682	0.625	0.578	0.588	0.543	0.598	0.582	0.607	0.584	1.03	0.815	0.903	0.991	0.826	0.581	0.501	0.554	0.609	0.602
HARA	0.507	0.806	1.02	0.936	0.561	0.558	0.492	0.578	0.594	0.295	0.779	0.78	0.893	1.03	0.897	0.104	0.0979	0.111	0.136	0.112
HCC-15	0.41	0.373	0.37	0.384	0.336	0.733	0.805	0.75	0.803	0.625	0.763	0.851	0.83	0.911	0.801	0.498	0.3	0.35	0.427	0.352
HCC-44	1.11	1.06	1.17	1.15	1.07	0.511	–	0.777	0.479	0.611	0.615	0.661	0.617	0.654	0.688	0.886	0.837	0.771	0.729	0.813
HCC-78	0.678	0.916	0.641	0.809	0.724	0.392	0.392	0.406	0.386	0.419	0.474	0.501	0.474	–	0.581	0.482	–	0.414	1.83	0.404
